Results as given in ChEMBL document CHEMBL1201862, “PubChem BioAssay data set” (2004).
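Tested at 5 concentrations; 48 h exposure; 96-well plates; endpoints linearly interpolated, else capped at highest concentration. GI50 = concentration required for 50% inhibition of growth.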 Active and inactive are the calls of the source. No stated cut-off is given here; in the data, active = GI50 up to about 1.1 µM and inactive = higher.

Tests used:
Test in all cases: DTP human tumour cell line panel, 48 h
[1] = system: MOLT-4
[2] = system: M14
[3] = system: NCI-H23
[4] = system: A498
[5] = system: SK-MEL-28
[6] = system: SK-MEL-5
[7] = system: U-251
[8] = system: IGROV-1
[9] = system: HL-60
[10] = system: OVCAR-4
[11] = system: UACC-257
[12] = system: COLO 205
[13] = system: HOP-92
[14] = system: EKVX
[15] = system: SK-MEL-2
[16] = system: HOP-62
[17] = system: ACHN
[18] = system: OVCAR-8
[19] = system: CAKI-1

Measured: GI50

CCCCP1(=O)C=CC(Cl)=C(C)C1 (configuration not stated)
inactive: [1] > 100 µM | [2] > 100 µM | [3] > 100 µM | [4] > 100 µM | [5] > 100 µM | [6] > 100 µM | [7] > 100 µM | [8] > 100 µM | [9] > 100 µM | [10] > 100 µM | [11] > 100 µM | [12] > 100 µM | [13] > 100 µM | [14] > 100 µM | [15] > 100 µM | [16] > 100 µM | [17] > 100 µM | [18] > 100 µM

COC(=O)C1CC=C(SC(=O)c2ccccc2)N1C(=O)c1ccccc1 (configuration not stated)
inactive: [1] > 100 µM | [2] > 100 µM | [3] > 100 µM | [4] > 100 µM | [5] > 100 µM | [6] > 100 µM | [7] > 100 µM | [8] > 100 µM | [19] > 100 µM | [10] > 100 µM | [11] > 100 µM | [12] > 100 µM | [13] > 100 µM | [14] > 100 µM | [15] > 100 µM | [16] > 100 µM | [17] > 100 µM | [18] > 100 µM

COC(=O)C1CCC(=O)N1C(=O)Cc1ccc(OC)cc1 (configuration not stated)
inactive: [2] > 100 µM | [3] > 100 µM | [4] > 100 µM | [5] > 100 µM | [6] > 100 µM | [7] > 100 µM | [8] > 100 µM | [19] > 100 µM | [10] > 100 µM | [11] > 100 µM | [12] > 100 µM | [13] > 100 µM | [14] > 100 µM | [17] > 100 µM | [18] > 100 µM

CO/C=C1\OC(=O)C=C1OC
inactive: [1] > 100 µM | [3] > 100 µM | [4] > 100 µM | [5] > 100 µM | [6] > 100 µM | [7] > 31.6 µM | [8] > 100 µM | [19] > 100 µM | [9] > 100 µM | [10] > 100 µM | [11] > 100 µM | [12] > 100 µM | [13] > 100 µM | [14] > 100 µM | [15] > 100 µM | [18] > 100 µM

COc1ccc2nc(NC(=O)C(=O)C(C(=O)c3ccccc3-c3ccccc3)C3OC(=O)c4ccccc43)sc2c1 (configuration not stated)
inactive: [1] 19.5 µM | [2] 19 µM | [3] 13.8 µM | [4] 17.7 µM | [5] 20.5 µM | [6] 16.2 µM | [7] 12.8 µM | [8] 25.8 µM | [9] 16 µM | [11] 22.4 µM | [12] 20.5 µM | [13] 16.5 µM | [14] 21.7 µM | [15] 13.6 µM | [16] 16.2 µM | [17] 26 µM | [18] 20.1 µM

Cc1cc(Cl)ccc1NC1=NC(=O)C(CC(=O)Nc2cccc(Cl)c2)S1 (configuration not stated)
inactive: [2] 44.7 µM | [3] 12.9 µM | [4] 23.8 µM | [5] > 100 µM | [6] 24.9 µM | [7] 33.2 µM | [8] 40.3 µM | [19] 8.79 µM | [9] 9.16 µM | [10] 29.2 µM | [11] 38.8 µM | [12] 72.1 µM | [13] 14.2 µM | [14] > 100 µM | [15] 37.8 µM | [16] > 100 µM | [17] 11.2 µM | [18] > 100 µM
